Assay results: US20150098905A1, “METHODS TO DETECT A FUNGAL CELL” (priority 2012, published 2015)
≈ marks a conversion by molar mass, not a printed value. Numbered stars: 1 amine (or outer) side, 2 acyl side, 3 side chain; on linkers, the order of the positions; unused ones are H or OH. Bridge positions count the residues as written; N and C are the ends. Square brackets hold non-standard residues; d marks the D form. Peptide text beside a SMILES is read from it. * marks the point of attachment. hTyr(3S-OH,4S-OH,3'-OSO3H) = N[C@H](C(=O)O)[C@H](O)[C@@H](O)c1ccc(O)c(OS(=O)(=O)O)c1; pTerphenylCO(4''-OnC5H11) = CCCCCOc1ccc(-c2ccc(-c3ccc(C(=O)*)cc3)cc2)cc1; Orn(4R-OH,5R-OH) = O=C([C@H](C[C@@H](O)[C@@H](O)N[*:3])N[*:1])[*:2]; hTyr(3S-OH,4S-OH) = N[C@H](C(=O)O)[C@H](O)[C@@H](O)c1ccc(O)cc1; Pro(3S-OH,4S-Me) = C[C@H]1CN[C@H](C(=O)O)[C@H]1O; X1 = CCCCCOc1ccc(-c2cc(-c3ccc(C(=O)*)cc3)no2)cc1; Gln(3R-OH) = NC(=O)C[C@@H](O)[C@H](N)C(=O)O; Hyp = O=C(O)[C@@H]1C[C@@H](O)CN1

Assays:
[1] = tested on: C. albicans and A. fumigatus cells; assay: Pretreatment with unlabeled antifungal drug followed by probe labeling; type: cell-based, Candida albicans, Aspergillus fumigatus; conditions: for effect of pretreatment on CSF-BOD labeling: pretreatment C. albicans 1 h, A. fumigatus 2 h, azoles at one dilution below the MIC, then CSF-BOD; for effect of pretreatment on labeling of cells by POS-BOD: pretreatment with unlabeled drug, then POS-BOD
Text: To illustrate the potential of CSF-BOD and POS-BOD for visualizing fungal cells, the reagent was used to probe for the presence of Candida and Aspergillus species in a variety of matrices including solid and liquid growth media. The clinical A. fumigatus wild type strain R21 and Candida albicans ATCC strain 90028 were used for all the experiments. For Aspergillus, one drop of yeast extract peptone dextrose (YPD) agar was placed in the upper right corner of each well of a 15-well multitest slide followed by the addition of 10 μl of saline containing 105 conidia of R21. The slide was placed in a sterile petri dish with distilled water to provide a moist environment and incubated in a 37° C. incubator for 10-16 hours to facilitate germination and growth of hyphal elements. A 10 μl aliquot of CSF-BOD (170 ng/ml) or POS-BOD (150 ng/ml) was added to each well and incubated for 6 h at 37° C., followed by washing 3 times with sterile water and drying by vacuum. For Candida, an overnight culture of C. albicans was grown, washed by centrifugation and resuspended in dH2O. The yeast cells were added to RPMI and incubated at 200 rpm for 1 h at 37° C. to form germ tubes before being washed and resuspended in a 1 ml solution of CSF-BOD (120 ng/mil) or POS-BOD (150 ng/ml). The cells with drug were incubated again at 200 rpm for 1 h at 37° C., washed and resuspended in 50 ml of dH2O. A 15 well slide was prepared using a poly-L-lysine to tightly adhere cells to the wells. A 10 μL aliquot of Candida cells was placed on each well and incubated for 10 minutes, aspirated off, and 1 μL Slow Fade Antifade reagent was added to prolong the fluorescent life and moisture level of the cells on the each slide. Each slide was observed under 100× magnification with the total internal reflection objective lens (TIRF) of a Nikon Eclipse 90i fluorescent microscope. The 15 wells of the slides were examined individually using Volocity 3D Image Analysis Software (PerkinElmer). Individual cells, hyphal elements and clusters of cells were visualized, analyzed, and captured in bright field lighting and repeated under a Green Fluorescent Protein (GFP) light setting.

[2] = tested on: A. fumigatus wild type strain R21; assay: Cell labeling with fluorescent probe, fluorescence microscopy; type: cell-based, Aspergillus fumigatus; conditions: control, species not given
Text: To illustrate the potential of CSF-BOD and POS-BOD for visualizing fungal cells, the reagent was used to probe for the presence of Candida and Aspergillus species in a variety of matrices including solid and liquid growth media. The clinical A. fumigatus wild type strain R21 and Candida albicans ATCC strain 90028 were used for all the experiments. For Aspergillus, one drop of yeast extract peptone dextrose (YPD) agar was placed in the upper right corner of each well of a 15-well multitest slide followed by the addition of 10 μl of saline containing 105 conidia of R21. The slide was placed in a sterile petri dish with distilled water to provide a moist environment and incubated in a 37° C. incubator for 10-16 hours to facilitate germination and growth of hyphal elements. A 10 μl aliquot of CSF-BOD (170 ng/ml) or POS-BOD (150 ng/ml) was added to each well and incubated for 6 h at 37° C., followed by washing 3 times with sterile water and drying by vacuum. For Candida, an overnight culture of C. albicans was grown, washed by centrifugation and resuspended in dH2O. […] Individual cells, hyphal elements and clusters of cells were visualized, analyzed, and captured in bright field lighting and repeated under a Green Fluorescent Protein (GFP) light setting.

[3] = tested on: C. albicans; assay: Antifungal activity (MIC) of labeled and unlabeled caspofungin; type: cell-based; conditions: Candida albicans
Protocol: A derivative of CSF using BODIPY (BOD), an analog that resembles fluorescein but is smaller and more hydrophobic, was produced to test the CSF-BOD with various fungal pathogens. BODIPY-succinimidate was incubated with pure CSF in the presence of triethylamine as proton acceptor in DMF. The crude product was purified by TLC silica gel chromatography and characterized using mass spectroscopy, fluorescence and UV spectroscopy. The modified agent retained its specificity and sensitivity to the fungal target. […] BODIPY coupled to posaconazole (POS) was formed by modifying a single hydroxyl group of posaconazole with succinic anhydride (FIG. 6).

CC[C@@H]([C@H](C)O)n1ncn(-c2ccc(N3CCN(c4ccc(OC[C@@H]5CO[C@@](Cn6cncn6)(c6ccc(F)cc6F)C5)cc4)CC3)cc2)c1=O [posaconazole]
effect of pretreatment on CSF-BOD labeling [1]: no effect | effect of pretreatment on labeling of cells by POS-BOD [1]: greatly diminished or eliminated the fluorescence signal

CCCCCOc1ccc(-c2cc(-c3ccc(C(=O)N[C@H]4C[C@@H](O)[C@@H](O)NC(=O)[C@@H]5[C@@H](O)[C@@H](C)CN5C(=O)[C@H]([C@H](O)CC(N)=O)NC(=O)[C@H]([C@H](O)[C@@H](O)c5ccc(O)c(OS(=O)(=O)O)c5)NC(=O)[C@@H]5C[C@@H](O)CN5C(=O)[C@H]([C@@H](C)O)NC4=O)cc3)no2)cc1 [micafungin] (X1-[Orn(4R-OH,5R-OH)]T[Hyp][hTyr(3S-OH,4S-OH,3'-OSO3H)][Gln(3R-OH)][Pro(3S-OH,4S-Me)]; lactam 1-C)
effect of pretreatment on CSF-BOD labeling [1]: eliminated the labeling

CCCCCOc1ccc(-c2ccc(-c3ccc(C(=O)N[C@H]4C[C@@H](O)[C@@H](O)NC(=O)[C@@H]5[C@@H](O)[C@@H](C)CN5C(=O)[C@H]([C@@H](C)O)NC(=O)[C@H]([C@H](O)[C@@H](O)c5ccc(O)cc5)NC(=O)[C@@H]5C[C@@H](O)CN5C(=O)[C@H]([C@@H](C)O)NC4=O)cc3)cc2)cc1 [anidulafungin] ({pTerphenylCO(4''-OnC5H11)}-[Orn(4R-OH,5R-OH)]T[Hyp][hTyr(3S-OH,4S-OH)]T[Pro(3S-OH,4S-Me)]; lactam 1-C)
effect of pretreatment on CSF-BOD labeling [1]: eliminated the labeling

C[C@@H](c1ncncc1F)[C@](O)(Cn1cncn1)c1ccc(F)cc1F [voriconazole]
effect of pretreatment on CSF-BOD labeling [1]: no effect | effect of pretreatment on labeling of cells by POS-BOD [1]: greatly diminished or eliminated the fluorescence signal

boron-dipyrromethene [BODIPY]
labeling by unconjugated drug or dye alone [2]: failed to produce any labeling

CCC(C)n1ncn(-c2ccc(N3CCN(c4ccc(OCC5COC(Cn6cncn6)(c6ccc(Cl)cc6Cl)O5)cc4)CC3)cc2)c1=O (stereo not shown) [itraconazole]
effect of pretreatment on CSF-BOD labeling [1]: no effect

OC(Cn1cncn1)(Cn1cncn1)c1ccc(F)cc1F [fluconazole]
effect of pretreatment on CSF-BOD labeling [1]: no effect

CC[C@H](C)C[C@H](C)CCCCCCCCC(=O)N[C@H]1C[C@@H](O)[C@@H](NCCN)NC(=O)[C@@H]2[C@@H](O)CCN2C(=O)[C@H]([C@H](O)CCN)NC(=O)[C@H]([C@H](O)[C@@H](O)c2ccc(O)cc2)NC(=O)[C@@H]2C[C@@H](O)CN2C(=O)[C@H]([C@@H](C)O)NC1=O [caspofungin]
effect of pretreatment on CSF-BOD labeling [1]: intensified the fluorescence | effect of pretreatment on labeling of cells by POS-BOD [1]: little effect | MIC [3]: 0.06 µg/mL (≈ 0.0549 µM) | labeling by unconjugated drug or dye alone [2]: failed to produce any labeling
